Laboratory results reported in US20060229433A1, “Modified antiviral peptides with increased activity and cell membrane affinity” (priority 2003, published 2006).
Where “and” joins values, the source holds several entries; their conditions need not be identical. Equal values may be shown once. Square brackets hold non-standard residues; d marks the D form. Peptide text beside a SMILES is read from it. Ava = NCCCCC(=O)O

What was measured:
Format in all cases: cell-based
HIV-1 NL 4-3 [1] = assay: HIV-1 infection of C8166 cells (syncytia formation, p24 ELISA) with HIV-1 NL 4-3; parameters: key to syncitia formed, Day 4 / syncitia formed, Day 5 / syncitia formed, Day 6 / syncitia formed, Day 7: ++, +, (+), (+)− and − represent decreasing numbers of syncitia formed; ++, +, (+), (+)− and − represent decreasing numbers of syncitia formed; ++, +, (+), (+)− and − represent decreasing numbers of syncitia formed; ++, +, (+), (+)− and − represent decreasing numbers of syncitia formed; ++, +, (+), (+)− and − represent decreasing numbers of syncitia formed
Outline: (§1)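 Infection was read out as syncytia and as cell-free p24 in supernatants (ELISA) from C8166 cells that received HIV-1 (1000 TCID50/ml, 1 h, 37 °C) after a 1 h peptide pretreatment. Peptide stayed on before, during and after adsorption. Toxicity was checked by daily trypan-blue counts.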

HIV-1 NDK = assay: HIV-1 infection of C8166 cells (syncytia formation, p24 ELISA) with HIV-1 NDK; parameters: key to syncitia formed, Day 4 / syncitia formed, Day 5 / syncitia formed, Day 6 / syncitia formed, Day 7: ++, +, (+), (+)− and − represent decreasing numbers of syncitia formed; ++, +, (+), (+)− and − represent decreasing numbers of syncitia formed; ++, +, (+), (+)− and − represent decreasing numbers of syncitia formed; ++, +, (+), (+)− and − represent decreasing numbers of syncitia formed; ++, +, (+), (+)− and − represent decreasing numbers of syncitia formed; settings: for P 24: P 24 after Day 7
Protocol: HIV-1 NL 4-3 isolate (Adachi et al., 1986; Barré-Sinoussi et al., 1983) and highly cytopathic Zairian HIV-1 NDK isolate (Ellrodt et al., 1984) was propagated in permissive CEM cells (Nara et al., 1987). Uninfected CEM and C8166 (Salahuddin et al., 1983) were maintained in RPMI 1640 (R10) with ultraglutamine (cambrex, Vervier, Belgium), penicillin (100 U/ml), streptomycin (100 μg/ml), and 10% heat-inactivated fetal calf serum (Cambrex).
Samples of 3×10^5/100 μL C8166 cells were preincubated in 96-well microtiter plates in culture medium containing various concentrations of peptide. After a 1 h treatment at 37° C., 100 μl of diluted viral solution of HIV-1 was added. The cells were exposed to the virus for 1 h at 37° C. at a multiplicity of infection of 1000 TCID50 per ml. The cells were washed three times and cultured at 3×10^5/ml of R10 with the treatment in 24-well plates incubated at 37° C. C8166 culture medium was replaced at Day-4 post-infection. The treatment was permanent before virus adsorption, during virus adsorption and after infection. Assays on C8166 cells have been performed at least twice and in duplicate. Toxicity was evaluated by daily cell count and trypan-blue exclusion assay. Infection of C8166 T-cells with HIV-1 was assessed by virus-induced cytopathic effects (syncytia formation) and by quantification of cell free p24 viral protein in the culture supernatants. Measurements of HIV-1 p24^gag concentration in the culture supernatants were achieved by ELISA (ALLIANCE® HIV-1 p24 kit, Perkin Elmer, life sciences, USA).

HIV-1 NL 4-3 [2] = assay: HIV-1 infection of C8166 cells (syncytia formation, p24 ELISA) with HIV-1 NL 4-3; parameters: key: ++, +, (+), (+)− and − represent decreasing numbers of syncitia formed; ++, +, (+), (+)− and − represent decreasing numbers of syncitia formed; ++, +, (+), (+)− and − represent decreasing numbers of syncitia formed; ++, +, (+), (+)− and − represent decreasing numbers of syncitia formed; ++, +, (+), (+)− and − represent decreasing numbers of syncitia formed; settings: Table 6
Outline: as §1

N=C(N)NCCC[C@H](NC(=O)CNC(=O)[C@@H]1CCCN1C(=O)CN)C(=O)NCCCCC(=O)O [GPGR valeric acid, GPGR-NHCH2CH2CH2CH2COOH] (H-GPGR[Ava]-OH; N-terminus assumed)
syncitia formed, Day 4 (HIV-1 NL 4-3 [1]; 0.01 μM, C8166 cells): − | syncitia formed, Day 5 (HIV-1 NL 4-3 [1]; 0.01 μM, C8166 cells): + | syncitia formed, Day 6 (HIV-1 NL 4-3 [1]; 0.01 μM, C8166 cells): ++ | syncitia formed, Day 7 (HIV-1 NL 4-3 [1]; 0.01 μM, Day 7, C8166 cells): ++/T and ++ | syncitia formed, Day 4 (HIV-1 NL 4-3 [1]; 0.05 μM, C8166 cells): − | syncitia formed, Day 5 (HIV-1 NL 4-3 [1]; 0.05 μM, C8166 cells): (+) | syncitia formed, Day 6 (HIV-1 NL 4-3 [1]; 0.05 μM, C8166 cells): + | syncitia formed, Day 7 (HIV-1 NL 4-3 [1]; 0.05 μM, Day 7, C8166 cells): ++ | P 24 (HIV-1 NL 4-3 [1]; 0.05 μM, P 24 after Day 7, C8166 cells): 9860 pg/mL and 17800 pg/mL | syncitia formed, Day 4 (HIV-1 NL 4-3 [1]; 0.1 μM, C8166 cells): − | syncitia formed, Day 5 (HIV-1 NL 4-3 [1]; 0.1 μM, C8166 cells): (+) | syncitia formed, Day 6 (HIV-1 NL 4-3 [1]; 0.1 μM, C8166 cells): + | syncitia formed, Day 7 (HIV-1 NL 4-3 [1]; 0.1 μM, Day 7, C8166 cells): + | syncitia formed, Day 4 (HIV-1 NL 4-3 [1]; 0.5 μM, C8166 cells): − | syncitia formed, Day 5 (HIV-1 NL 4-3 [1]; 0.5 μM, C8166 cells): − | syncitia formed, Day 6 (HIV-1 NL 4-3 [1]; 0.5 μM, C8166 cells): − | syncitia formed, Day 7 (HIV-1 NL 4-3 [1]; 0.5 μM, Day 7, C8166 cells): + | P 24 (HIV-1 NL 4-3 [1]; 0.5 μM, P 24 after Day 7, C8166 cells): 2740 pg/mL and 2840 pg/mL | syncitia formed, Day 4 (HIV-1 NL 4-3 [1]; 1 μM, C8166 cells): − | syncitia formed, Day 5 (HIV-1 NL 4-3 [1]; 1 μM, C8166 cells): − | syncitia formed, Day 6 (HIV-1 NL 4-3 [1]; 1 μM, C8166 cells): − | syncitia formed, Day 7 (HIV-1 NL 4-3 [1]; 1 μM, Day 7, C8166 cells): − | P 24 (HIV-1 NL 4-3 [1]; 1 μM, P 24 after Day 7, C8166 cells): 53 pg/mL and 64 pg/mL | syncitia formed, Day 4 (HIV-1 NL 4-3 [1]; 5 μM, C8166 cells): − | syncitia formed, Day 5 (HIV-1 NL 4-3 [1]; 5 μM, C8166 cells): − | syncitia formed, Day 6 (HIV-1 NL 4-3 [1]; 5 μM, C8166 cells): − | syncitia formed, Day 7 (HIV-1 NL 4-3 [1]; 5 μM, Day 7, C8166 cells): − | P 24 (HIV-1 NL 4-3 [1]; 5 μM, P 24 after Day 7, C8166 cells): 2 pg/mL | P 24 (HIV-1 NL 4-3 [1]; Day 7, 0.005 μM, Table 6): 23810 pg/mL | P 24 (HIV-1 NL 4-3 [1]; Day 7, 0.01 μM, Table 6): 21800 pg/mL and 23810 pg/mL | P 24 (HIV-1 NL 4-3 [1]; Day 7, 0.05 μM, Table 6): 9840 pg/mL and 11830 pg/mL | P 24 (HIV-1 NL 4-3 [1]; Day 7, 0.1 μM, Table 6): 433 pg/mL and 507 pg/mL | P 24 (HIV-1 NL 4-3 [1]; Day 7, 1 μM, Table 6): 104 pg/mL and 179 pg/mL | P 24 (HIV-1 NL 4-3 [1]; Day 7, 5 μM, Table 6): 2.36 pg/mL and 2.4 pg/mL | syncitia formed, Day 4 (HIV-1 NDK; 0.005 μM): (+) | syncitia formed, Day 5 (HIV-1 NDK; 0.005 μM): + | syncitia formed, Day 6 (HIV-1 NDK; 0.005 μM): ++ | syncitia formed, Day 7 (HIV-1 NDK; 0.005 μM): ++ | P 24 (HIV-1 NDK; 0.005 μM): 23810 pg/mL | syncitia formed, Day 4 (HIV-1 NDK; 0.01 μM): (+) | syncitia formed, Day 5 (HIV-1 NDK; 0.01 μM): + | syncitia formed, Day 6 (HIV-1 NDK; 0.01 μM): ++ | syncitia formed, Day 7 (HIV-1 NDK; 0.01 μM): ++ | P 24 (HIV-1 NDK; 0.01 μM): 23810 pg/mL | syncitia formed, Day 4 (HIV-1 NDK; 0.05 μM): − | syncitia formed, Day 5 (HIV-1 NDK; 0.05 μM): (+) | syncitia formed, Day 6 (HIV-1 NDK; 0.05 μM): ++ | syncitia formed, Day 7 (HIV-1 NDK; 0.05 μM): ++ | P 24 (HIV-1 NDK; 0.05 μM): 23810 pg/mL | syncitia formed, Day 4 (HIV-1 NDK; 0.1 μM): − | syncitia formed, Day 5 (HIV-1 NDK; 0.1 μM): (+) | syncitia formed, Day 6 (HIV-1 NDK; 0.1 μM): ++ | syncitia formed, Day 7 (HIV-1 NDK; 0.1 μM): ++ | P 24 (HIV-1 NDK; 0.1 μM): 17890 pg/mL and 23810 pg/mL | syncitia formed, Day 4 (HIV-1 NDK; 0.5 μM): − | syncitia formed, Day 5 (HIV-1 NDK; 0.5 μM): − | syncitia formed, Day 6 (HIV-1 NDK; 0.5 μM): + | syncitia formed, Day 7 (HIV-1 NDK; 0.5 μM): ++ | syncitia formed, Day 4 (HIV-1 NDK; 1 μM): − | syncitia formed, Day 5 (HIV-1 NDK; 1 μM): − | syncitia formed, Day 6 (HIV-1 NDK; 1 μM): + | syncitia formed, Day 7 (HIV-1 NDK; 1 μM): ++ | P 24 (HIV-1 NDK; 1 μM): 2840 pg/mL and 3810 pg/mL | syncitia formed, Day 4 (HIV-1 NDK; 5 μM): − | syncitia formed, Day 5 (HIV-1 NDK; 5 μM): − | syncitia formed, Day 6 (HIV-1 NDK; 5 μM): (+) | syncitia formed, Day 7 (HIV-1 NDK; 5 μM): + | P 24 (HIV-1 NDK; 5 μM): 3810 pg/mL | IC50 (HIV-1 NDK; HIV 1 NDK, Table 10): 300 nM | IC100 (HIV-1 NDK; HIV 1 NDK, Table 10): >5 µM | Day 4 syncitia formed (HIV-1 NL 4-3 [2]; 0.005 μM): − | Day 5 syncitia formed (HIV-1 NL 4-3 [2]; 0.005 μM): + | Day 6 syncitia formed (HIV-1 NL 4-3 [2]; 0.005 μM): ++ | Day 7 syncitia formed (HIV-1 NL 4-3 [2]; 0.005 μM): ++ | Day 4 syncitia formed (HIV-1 NL 4-3 [2]; 0.01 μM): − | Day 5 syncitia formed (HIV-1 NL 4-3 [2]; 0.01 μM): + | Day 6 syncitia formed (HIV-1 NL 4-3 [2]; 0.01 μM): ++ | Day 7 syncitia formed (HIV-1 NL 4-3 [2]; 0.01 μM): ++ | Day 4 syncitia formed (HIV-1 NL 4-3 [2]; 0.05 μM): − | Day 5 syncitia formed (HIV-1 NL 4-3 [2]; 0.05 μM): (+) | Day 6 syncitia formed (HIV-1 NL 4-3 [2]; 0.05 μM): + | Day 7 syncitia formed (HIV-1 NL 4-3 [2]; 0.05 μM): ++ | Day 4 syncitia formed (HIV-1 NL 4-3 [2]; 0.1 μM): − | Day 5 syncitia formed (HIV-1 NL 4-3 [2]; 0.1 μM): (+) | Day 6 syncitia formed (HIV-1 NL 4-3 [2]; 0.1 μM): + | Day 7 syncitia formed (HIV-1 NL 4-3 [2]; 0.1 μM): + | Day 4 syncitia formed (HIV-1 NL 4-3 [2]; 0.5 μM): − | Day 5 syncitia formed (HIV-1 NL 4-3 [2]; 0.5 μM): − | Day 6 syncitia formed (HIV-1 NL 4-3 [2]; 0.5 μM): − | Day 7 syncitia formed (HIV-1 NL 4-3 [2]; 0.5 μM): + | Day 4 syncitia formed (HIV-1 NL 4-3 [2]; 1 μM): − | Day 5 syncitia formed (HIV-1 NL 4-3 [2]; 1 μM): − | Day 6 syncitia formed (HIV-1 NL 4-3 [2]; 1 μM): − | Day 7 syncitia formed (HIV-1 NL 4-3 [2]; 1 μM): + | Day 4 syncitia formed (HIV-1 NL 4-3 [2]; 5 μM): − | Day 5 syncitia formed (HIV-1 NL 4-3 [2]; 5 μM): − | Day 6 syncitia formed (HIV-1 NL 4-3 [2]; 5 μM): − | Day 7 syncitia formed (HIV-1 NL 4-3 [2]; 5 μM): −
